From PubChem BioAssay AID2060904 (Molecular Pharmacology Branch, DTP, NCI, 2025)

System: 349418-098-R-PDC complex spheroid viability
Experiment: Anticancer human tumor 349418-098-R-PDC patient-derived lung adenocarcinoma cell line growth inhibition [RAS]
Settings: for IC50: curve of first compound; for viability, T/C: stronger effect = lower value
In short: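 Tumour cells grown as complex spheroids with HUVEC endothelial cells and mesenchymal stem cells, treated with RAS pathway inhibitor combinations. Each agent spans half-log steps from near clinical Cmax, or 10 microM where Cmax is unknown.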
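Note: spheroids exposed to compound for seven days before viability readout.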

C=CC(=O)N1CCN(c2nc(OCC3CCCN3C)nc3c(F)c(-c4nc(N)cc(C)c4C(F)(F)F)c(Cl)cc23)C(C)C1 (centres undefined) + CCn1c(-c2cc(N3CCN(C)CC3)cnc2C(C)OC)c2c3cc(ccc31)-c1csc(n1)CC(NC(=O)C1CC1C)C(=O)N1CCCC(N1)C(=O)OCC(C)(C)C2
IC50 (second compound 0.000949 µM): > 1 µM
IC50 (second compound 0.003 µM): > 1 µM
IC50 (second compound 0.00949 µM): > 1 µM
IC50 (second compound 0.03 µM): > 1 µM
IC50 (second compound 0.0949 µM): > 1 µM
IC50 (second compound 0.3 µM): > 1 µM
viability, T/C (second compound 0.000949 µM, first compound 0.00316 µM): 117%
viability, T/C (second compound 0.000949 µM, first compound 0.01 µM): 82.4%
viability, T/C (second compound 0.000949 µM, first compound 0.0316 µM): 109%
viability, T/C (second compound 0.000949 µM, first compound 0.1 µM): 101%
viability, T/C (second compound 0.000949 µM, first compound 0.316 µM): 96.8%
viability, T/C (second compound 0.000949 µM, first compound 1 µM): 101%
viability, T/C (second compound 0.003 µM, first compound 0.00316 µM): 90.3%
viability, T/C (second compound 0.003 µM, first compound 0.01 µM): 105%
viability, T/C (second compound 0.003 µM, first compound 0.0316 µM): 96.1%
viability, T/C (second compound 0.003 µM, first compound 0.1 µM): 86.7%
viability, T/C (second compound 0.003 µM, first compound 0.316 µM): 99.9%
viability, T/C (second compound 0.003 µM, first compound 1 µM): 82.2%
viability, T/C (second compound 0.00949 µM, first compound 0.00316 µM): 101%
viability, T/C (second compound 0.00949 µM, first compound 0.01 µM): 97.1%
viability, T/C (second compound 0.00949 µM, first compound 0.0316 µM): 104%
viability, T/C (second compound 0.00949 µM, first compound 0.1 µM): 98.9%
viability, T/C (second compound 0.00949 µM, first compound 0.316 µM): 106%
viability, T/C (second compound 0.00949 µM, first compound 1 µM): 80.7%
viability, T/C (second compound 0.03 µM, first compound 0.00316 µM): 99%
viability, T/C (second compound 0.03 µM, first compound 0.01 µM): 110%
viability, T/C (second compound 0.03 µM, first compound 0.0316 µM): 99.7%
viability, T/C (second compound 0.03 µM, first compound 0.1 µM): 102%
viability, T/C (second compound 0.03 µM, first compound 0.316 µM): 97.4%
viability, T/C (second compound 0.03 µM, first compound 1 µM): 82.3%
viability, T/C (second compound 0.0949 µM, first compound 0.00316 µM): 92.5%
viability, T/C (second compound 0.0949 µM, first compound 0.01 µM): 110%
viability, T/C (second compound 0.0949 µM, first compound 0.0316 µM): 112%
viability, T/C (second compound 0.0949 µM, first compound 0.1 µM): 112%
viability, T/C (second compound 0.0949 µM, first compound 0.316 µM): 113%
viability, T/C (second compound 0.0949 µM, first compound 1 µM): 102%
viability, T/C (second compound 0.3 µM, first compound 0.00316 µM): 110%
viability, T/C (second compound 0.3 µM, first compound 0.01 µM): 94.3%
viability, T/C (second compound 0.3 µM, first compound 0.0316 µM): 105%
viability, T/C (second compound 0.3 µM, first compound 0.1 µM): 109%
viability, T/C (second compound 0.3 µM, first compound 0.316 µM): 99.7%
viability, T/C (second compound 0.3 µM, first compound 1 µM): 90.5%

CC(C)NCC(C(=O)N1CCN(c2ncnc3c2C(C)CC3O)CC1)c1ccc(Cl)cc1 (centres undefined) + C=CC(=O)N1CCN(c2nc(OCC3CCCN3C)nc3c(F)c(-c4nc(N)cc(C)c4C(F)(F)F)c(Cl)cc23)C(C)C1
IC50 (second compound 0.00316 µM): 0.386 µM
IC50 (second compound 0.01 µM): 0.252 µM
IC50 (second compound 0.0316 µM): 0.593 µM
IC50 (second compound 0.1 µM): 0.545 µM
IC50 (second compound 0.316 µM): 0.62 µM
IC50 (second compound 1 µM): 0.553 µM
viability, T/C (second compound 0.00316 µM, first compound 0.0316 µM): 88.2%
viability, T/C (second compound 0.00316 µM, first compound 0.1 µM): 86.6%
viability, T/C (second compound 0.00316 µM, first compound 0.316 µM): 53.7%
viability, T/C (second compound 0.00316 µM, first compound 1 µM): 24.3%
viability, T/C (second compound 0.00316 µM, first compound 3.16 µM): 17.2%
viability, T/C (second compound 0.00316 µM, first compound 10 µM): 7.89%
viability, T/C (second compound 0.01 µM, first compound 0.0316 µM): 102%
viability, T/C (second compound 0.01 µM, first compound 0.1 µM): 83.9%
viability, T/C (second compound 0.01 µM, first compound 0.316 µM): 39.3%
viability, T/C (second compound 0.01 µM, first compound 1 µM): 23.7%
viability, T/C (second compound 0.01 µM, first compound 3.16 µM): 15.9%
viability, T/C (second compound 0.01 µM, first compound 10 µM): 9.35%
viability, T/C (second compound 0.0316 µM, first compound 0.0316 µM): 78%
viability, T/C (second compound 0.0316 µM, first compound 0.1 µM): 77.1%
viability, T/C (second compound 0.0316 µM, first compound 0.316 µM): 81.2%
viability, T/C (second compound 0.0316 µM, first compound 1 µM): 26.1%
viability, T/C (second compound 0.0316 µM, first compound 3.16 µM): 22.7%
viability, T/C (second compound 0.0316 µM, first compound 10 µM): 10%
viability, T/C (second compound 0.1 µM, first compound 0.0316 µM): 70%
viability, T/C (second compound 0.1 µM, first compound 0.1 µM): 67.5%
viability, T/C (second compound 0.1 µM, first compound 0.316 µM): 67.6%
viability, T/C (second compound 0.1 µM, first compound 1 µM): 31.1%
viability, T/C (second compound 0.1 µM, first compound 3.16 µM): 16.1%
viability, T/C (second compound 0.1 µM, first compound 10 µM): 9.41%
viability, T/C (second compound 0.316 µM, first compound 0.0316 µM): 66.8%
viability, T/C (second compound 0.316 µM, first compound 0.1 µM): 82.1%
viability, T/C (second compound 0.316 µM, first compound 0.316 µM): 76.3%
viability, T/C (second compound 0.316 µM, first compound 1 µM): 32.2%
viability, T/C (second compound 0.316 µM, first compound 3.16 µM): 24.5%
viability, T/C (second compound 0.316 µM, first compound 10 µM): 7.85%
viability, T/C (second compound 1 µM, first compound 0.0316 µM): 72.8%
viability, T/C (second compound 1 µM, first compound 0.1 µM): 65.4%
viability, T/C (second compound 1 µM, first compound 0.316 µM): 71.8%
viability, T/C (second compound 1 µM, first compound 1 µM): 28.8%
viability, T/C (second compound 1 µM, first compound 3.16 µM): 25%
viability, T/C (second compound 1 µM, first compound 10 µM): 10.2%
